Test results: patent publication US12371404B2, “Fused bicyclic alkylene linked imidodicarbonimidic diamides, methods for synthesis, and uses in therapy” (NovaTarg, Inc., priority 2016, dated 2025)
Where a name gives a salt, the structure may show the parent alone. Read-outs that look alike come from different tables or passages of the source.

Key:
[1] = target: T1, human OCT1 (Homo sapiens, UniProt O15245); experiment: Oxygen consumption rate (OCR) assay, HEK293 cells transfected with OCT1; conditions: HEK293 cells stably transfected with human OCT1; MitoXpress Xtra, 2 hours
T1 sequence (O15245 1-554): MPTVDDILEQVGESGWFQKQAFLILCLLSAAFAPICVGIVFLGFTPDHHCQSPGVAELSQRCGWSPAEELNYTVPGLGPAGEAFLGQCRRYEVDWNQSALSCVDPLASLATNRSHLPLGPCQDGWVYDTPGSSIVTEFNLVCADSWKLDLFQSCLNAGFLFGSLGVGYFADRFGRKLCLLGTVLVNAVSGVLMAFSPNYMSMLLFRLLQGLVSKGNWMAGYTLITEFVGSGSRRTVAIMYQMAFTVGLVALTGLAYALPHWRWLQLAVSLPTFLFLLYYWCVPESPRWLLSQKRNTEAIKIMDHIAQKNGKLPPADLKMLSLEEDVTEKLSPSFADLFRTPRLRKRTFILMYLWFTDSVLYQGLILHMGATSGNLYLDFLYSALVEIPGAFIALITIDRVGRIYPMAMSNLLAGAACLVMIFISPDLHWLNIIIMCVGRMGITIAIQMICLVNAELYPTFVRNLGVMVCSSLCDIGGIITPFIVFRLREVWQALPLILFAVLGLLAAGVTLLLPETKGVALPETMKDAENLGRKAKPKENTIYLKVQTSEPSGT
Source text: (§1) Diabetologia 2011, 54 (12): 3101-3110, each incorporated by reference with regard to such testing. The compounds of the present invention are similarly tested in an oxygen consumption rate (OCR) assay to evaluate the functional activity of test compounds in cells.
(§2) In brief, the assay uses HEK293 cells stably transfected with the human OCT1, OCT2, OCT3, PMAT, or MATE1 transporters to determine a compound's relative transporter selectivity and its effect on the rate of oxygen consumption relative to control (Neo) cells. The MitoXpress Xtra oxygen-sensitive fluorophore is used to monitor oxygen consumption rates in the presence and absence of compound treatments. The analogs were tested at eight (8) different concentrations in triplicate to determine a relative IC50 value.
(§3) A summary description of the protocol is as follows:
HEK293 cells transformed with human organic cation transporters were plated in collagen coated, 96-well black-walled microclear plates (Greiner-Bio 1, #655956) at 60,000 cells per well in growth medium (DMEM (LG), 10% FBS, 400 μg/ml G418). Cells were incubated overnight to allow attachment. The outer columns (1 and 12) are not seeded with cells, as controls. The next day, plating medium was removed and replaced with 150 μL of assay medium (DMEM/F12 (PRF), 5% FBS, antibiotics) containing compound dilutions. A 3-fold serial dilution was prepared in the assay medium and transferred to the empty wells. The outer columns and column 11 received 150 μL of assay medium only. […] Dual read time-resolved fluorescence (BMG FluoStar Galaxy reader) was measured over 2 hours with measurements taken every 2 minutes. […] Background TRF values from A1-D1 were subtracted from all readings. A ratiometric analysis was performed to determine changes in the Lifetime fluorescence signal:Lifetime (μs) [T]=(D2−D1)/ln(W1/W2), where D is delay; W is fluorescence window value at each time point. Lifetime slopes were calculated using each Lifetime measurement over time. IC50 values were determined by plotting lifetime slope values vs. compound concentration.

[2] = test system: control (Neo) cells; experiment: Oxygen consumption rate (OCR) assay, control (Neo) HEK293 cells; format: cell-based; conditions: Homo sapiens, read-out: Oxygen Consumption Rate (OCR) IC50, Neo
Source text: as §1, §2, §3
(§4) HEK293 cells transformed with human organic cation transporters were plated in collagen coated, 96-well black-walled microclear plates (Greiner-Bio 1, #655956) at 60,000 cells per well in growth medium (DMEM (LG), 10% FBS, 400 μg/ml G418). Cells were incubated overnight to allow attachment. The outer columns (1 and 12) are not seeded with cells, as controls. The next day, plating medium was removed and replaced with 150 μL of assay medium (DMEM/F12 (PRF), 5% FBS, antibiotics) containing compound dilutions. A 3-fold serial dilution was prepared in the assay medium and transferred to the empty wells. The outer columns and column 11 received 150 μL of assay medium only. 10 μL of MitoXpress Xtra reagent was added to each test well, and 100 μL of pre-warmed mineral oil was overlayed in each well to create a seal. Dual read time-resolved fluorescence (BMG FluoStar Galaxy reader) was measured over 2 hours with measurements taken every 2 minutes. Excitation is 340 nm, Emission is 650 nm. For lifetime analysis, two measurements per well were taken: 1) delay of 30 μs, with a window of 30 μs; and 2) delay of 70 μs with a window of 30 μs. Background TRF values from A1-D1 were subtracted from all readings. A ratiometric analysis was performed to determine changes in the Lifetime fluorescence signal:Lifetime (μs) [T]=(D2−D1)/ln(W1/W2), where D is delay; W is fluorescence window value at each time point. Lifetime slopes were calculated using each Lifetime measurement over time. IC50 values were determined by plotting lifetime slope values vs. compound concentration.

[3] = target: T2, human MATE1 (Homo sapiens, UniProt Q96FL8); experiment: Oxygen consumption rate (OCR) assay, HEK293 cells transfected with MATE1
T2 sequence (Q96FL8 1-570): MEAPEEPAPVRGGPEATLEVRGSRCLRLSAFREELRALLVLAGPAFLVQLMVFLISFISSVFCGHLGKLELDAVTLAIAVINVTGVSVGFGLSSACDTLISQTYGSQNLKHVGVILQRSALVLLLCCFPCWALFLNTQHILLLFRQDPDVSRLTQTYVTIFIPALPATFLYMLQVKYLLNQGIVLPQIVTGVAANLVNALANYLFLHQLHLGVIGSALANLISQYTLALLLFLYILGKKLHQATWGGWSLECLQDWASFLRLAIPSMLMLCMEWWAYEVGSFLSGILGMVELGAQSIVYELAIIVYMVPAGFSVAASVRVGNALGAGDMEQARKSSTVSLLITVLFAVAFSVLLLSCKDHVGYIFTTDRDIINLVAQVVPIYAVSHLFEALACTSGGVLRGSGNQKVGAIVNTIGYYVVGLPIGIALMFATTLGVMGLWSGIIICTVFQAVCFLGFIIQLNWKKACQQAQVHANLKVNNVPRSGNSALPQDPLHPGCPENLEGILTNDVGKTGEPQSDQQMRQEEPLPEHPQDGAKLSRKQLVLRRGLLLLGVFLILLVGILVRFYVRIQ
Source text: The compounds of the present invention are similarly tested in an oxygen consumption rate (OCR) assay to evaluate the functional activity of test compounds in cells.
as §2, §3
as §4, with “Cells” for “HEK293 cells transformed with human organic cation transporters were plated in collagen coated, 96-well black-walled microclear plates (Greiner-Bio 1, #655956) at 60,000 cells per well in growth medium (DMEM (LG), 10% FBS, 400 μg/ml G418). Cells”

[4] = target: T3, human PMAT (Homo sapiens, UniProt Q7RTT9); experiment: Oxygen consumption rate (OCR) assay, HEK293 cells transfected with PMAT; format: cell-based; conditions: for inhibition at 10 µM: HEK293 cells with human PMAT
T3 construct: expressed in transfected cells; host or cells: HEK293
T3 sequence (Q7RTT9 1-530): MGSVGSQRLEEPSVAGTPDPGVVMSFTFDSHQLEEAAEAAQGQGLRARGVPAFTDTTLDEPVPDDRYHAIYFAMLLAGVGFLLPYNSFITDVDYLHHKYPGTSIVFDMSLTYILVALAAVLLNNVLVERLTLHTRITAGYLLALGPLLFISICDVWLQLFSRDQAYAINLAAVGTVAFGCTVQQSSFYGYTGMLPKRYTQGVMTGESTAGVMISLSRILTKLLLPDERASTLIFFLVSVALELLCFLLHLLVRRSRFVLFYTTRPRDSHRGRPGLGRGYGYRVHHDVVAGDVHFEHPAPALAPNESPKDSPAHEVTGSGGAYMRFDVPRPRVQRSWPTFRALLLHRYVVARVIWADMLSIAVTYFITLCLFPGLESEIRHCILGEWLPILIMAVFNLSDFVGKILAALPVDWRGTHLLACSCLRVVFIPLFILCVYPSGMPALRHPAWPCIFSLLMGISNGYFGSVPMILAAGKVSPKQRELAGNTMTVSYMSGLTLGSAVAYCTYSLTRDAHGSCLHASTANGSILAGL
Source text: as §1, §2, §3, §4

[5] = control (Neo) HEK293 cells, MitoXpress Xtra, 2 hours
[6] = HEK293 cells stably transfected with human PMAT, MitoXpress Xtra, 2 hours, read-out: Oxygen Consumption Rate (OCR) IC50, PMAT

SMILES | Oxygen Consumption Rate (OCR) IC50, OCT 1 [1] [µM] | IC50 ([2]; HEK293, 2 h) [µM] | inhibition at 1000 µM ([3]; HEK293, read-out: Oxygen Consumption Rate (OCR), MATE 1, % Inhibition at 1000 μM test concentration) [%] | IC50 [4] [µM] | IC50 [3] [µM] | IC50 [2, 5] [µM] | inhibition at 10 µM [4] [%] | IC50 [4, 6] [µM]
Cc1[nH]c2ccccc2c1CCNC(=N)NC(=N)N [Ex 1, 1-[2-(2-methyl-1H-indol-3-yl)ethyl]imidodicarbonimide diamide] | 1267 | > 5000 | 30 | 3 | – | – | – | –
Cl.N=C(N)NC(=N)NCCc1c[nH]c2ccc(F)cc12 [Ex 2, 1-[2-(5-fluoro-1H-indol-3-yl)ethyl]imidodicarbonimide diamide hydrochloride] | >1000 | > 1000 | – | 5 | > 1000 | – | – | –
CN(C)C(=N)NC(=N)NCCc1c[nH]c2ccc(C(F)(F)F)cc12 [Ex 32, 3-(2-(5-trifluoromethyl-1H-indol-3-yl)ethyl)-1,1-dimethyl imidodicarbonimide diamide hydrochloride] | – | – | – | – | 681 | 397 | 10 | –
N=C(N)NC(=N)NCCc1c[nH]c2cccc(Cl)c12 [Ex 34, 1-[2-(4-chloro-1H-indol-3-yl)ethyl]imidodicarbonimide diamide, trifluoroacetic acid salt] | 3 | 184 | – | 2 | 19 | – | – | –
N=C(N)NC(=N)NCCc1c[nH]c2cc(Cl)ccc12 [Ex 35, 1-[2-(6-chloro-1H-indol-3-yl)ethyl]imidodicarbonimide diamide, trifluoroacetic acid salt] | – | – | – | – | 20 | 205 | 68 | –
N=C(N)NC(=N)NCCc1c[nH]c2c(Cl)cccc12 [Ex 36, 1-[2-(7-chloro-1H-indol-3-yl)ethyl]imidodicarbonimide diamide, trifluoroacetic acid salt] | – | – | – | – | 26 | 409 | 55 | –
N=C(N)NC(=N)NCCc1c[nH]c2c(F)c(F)c(F)cc12 [Ex 41, 1-[2-(5,6,7-trifluoro-1H-indol-3-yl)ethyl]imidodicarbonimide diamide, trifluoroacetic acid salt] | – | 460 | – | 6 | 675 | – | – | –
N=C(N)NC(=N)NCCc1c[nH]c2c(F)c(F)c(F)c(F)c12 [Ex 42, 1-[2-(4,5,6,7-tetrafluoro-1H-indol-3-yl)ethyl]imidodicarbonimide diamide, trifluoroacetic acid salt] | – | 129 | – | 5 | 183 | – | – | –
N=C(N)NC(=N)NCCc1c[nH]c2ncc(F)cc12 [Ex 43, 1-(2-(5-fluoro-1H-pyrrolo[2,3-b]pyridin-3-yl)ethyl)imidodicarbonimide diamide, trifluoroacetic acid salt] | – | – | – | – | 2230 | 11000 | – | 23
N=C(N)NC(=N)NCCc1c[nH]c2nc(F)ccc12 [Ex 45, 1-(2-(6-fluoro-1H-pyrrolo[2,3-b]pyridin-3-yl)ethyl)imidodicarbonimide diamide, trifluoroacetic acid salt] | – | – | – | – | > 3000 | 11400 | – | 14
N=C(N)NC(=N)NCCc1c[nH]c2cc(Cl)c(F)cc12 [Ex 48, 1-[2-(6-chloro-5-fluoro-1H-indol-3-yl)ethyl]imidodicarbonimide diamide, trifluoroacetic acid salt] | – | – | – | – | 101 | 210 | 61 | –
N=C(N)NC(=N)NCc1c[nH]c2ccccc12 [Ex 55, 1-[(1H-indol-3-yl)methyl]imidodicarbonimide diamide, trifluoroacetic acid salt] | – | – | – | – | 1650 | 1400 | 10 | –
Cc1ccc2c(CCNC(=N)NC(=N)N)c[nH]c2c1 [Ex 56, 1-[2-(6-methyl-1H-indol-3-yl)ethyl]imidodicarbonimide diamide, trifluoroacetate salt] | – | – | – | – | 769 | 895 | 43 | –
N=C(N)NC(=N)NCCc1c[nH]c2ccc(OC(F)(F)F)cc12 [Ex 57, 1-[2-(5-trifluoromethoxy-1H-indol-3-yl)ethyl]imidodicarbonimide diamide, trifluoroacetic acid salt] | – | – | – | – | 631 | 255 | 6 | –
Cc1cccc2c(CCNC(=N)NC(=N)N)c[nH]c12 [Ex 59, 1-[2-(7-methyl-1H-indol-3-yl)ethyl]imidodicarbonimide diamide, trifluoroacetic acid salt] | – | – | – | – | 112 | 1290 | 47 | –
